This note sets out measurements from patent US20100069345A1, “Lanthanide-porphyrin complexes as anti-tumor agents” (priority 2005, published 2010).

Series [1] deals with normal human lung fibroblast cells (CCD-19Lu). Description: MTT cell viability assay, CCD-19Lu. The series is classed as cell-based. The conditions noted are these: for IC50 ratio cisplatin/complex, CCD-19Lu: IC50 of cisplatin divided by IC50 of complex; for IC50: MTT, 37° C., 48 h, mean ± SD. An excerpt:
(§1) Human cervical epitheloid carcinoma cells (HeLa), human hepatocellular carcinoma cells (HepG2 and Hep3B), human breast cancer cells (MCF-7), human coloadenocarcinoma cells (HCT-8), and normal human lung fibroblast cells (CCD-19Lu) were purchased from American Type Culture Collection (ATCC) Rockville, Md., USA. The human hepatocellular cancinoma cells QGY-7703, and the multi-drug resistant cell line QGY-TR50 derived from QGY-7703, were generously provided by Prof. Yong Xie (The Hong Kong University of Science and Technology, Hong Kong PRC). QGY-TR50 cells were isolated and cultured as described (J. Zhou, S. C. Cheng, D. Luo, Y. Xie Biochem. Biophys. Res. Commun. 2001, 280, 1237-1242). Human nasopharyngeal carcinoma cells (SUNE1 and its cisplatin-resistant variant—CNE2) were derived from poorly differentiated NPC in Chinese patients and were generously provided by Dr. S. W. Tsao (The University of Hong Kong, Hong Kong PRC). Cell culture flasks and 96-well microtitre plates were from Nalge Nunc Int. Culture medium, other medium constituents and phosphate buffer saline (PBS) were obtained by Gibco BRL Rockville, Md., USA. Cell Proliferation kit I (MTT) was purchased from Roche. Mannheim, Germany.

In series [2] the test system is human coloadenocarcinoma cells (HCT-8). In words: MTT cell viability assay, HCT-8. The conditions noted are these: for IC50 ratio cisplatin/complex, HCT-8: IC50 of cisplatin divided by IC50 of complex; for IC50: MTT, 37° C., 48 h, mean ± SD. The series is classed as cell-based.
Text: as §1
(In general: Tetrazolium dyes change colour on reduction, which living cells bring about.)

Series [3] relates to human nasopharyngeal carcinoma cells (SUNE1). Description: MTT cell viability assay, SUNE1. The conditions noted are these: for IC50 ratio cisplatin/complex, SUNE1: IC50 of cisplatin divided by IC50 of complex; for IC50: MTT, 37° C., 48 h, mean ± SD. The series is classed as cell-based.
Text: as §1

Series [4] relates to human hepatocellular carcinoma cells (HepG2). Description: MTT cell viability assay, HepG2. The series is classed as cell-based. The conditions noted are these: for IC50: MTT, 37° C., 48 h, mean ± SD.
Text: as §1

Series [5] deals with human breast cancer cells (MCF-7). In words: MTT cell viability assay, MCF-7. The series is classed as cell-based. The conditions noted are these: MTT, 37° C., 48 h; mean ± SD.
Text: as §1

The subject of series [6] is human cervical epitheloid carcinoma cells (HeLa). Description: MTT cell viability assay, HeLa. The series is classed as cell-based. The conditions noted are these: for IC50 ratio cisplatin/complex, HeLa: IC50 of cisplatin divided by IC50 of complex; for IC50: MTT, 37° C., 48 h, mean ± SD of three experiments.
Text: as §1

In series [7] the test system is HeLa cells. Description: Effect of 3-MA on 1-induced cytotoxicity (MTT). The series is classed as cell-based, human. The conditions noted are these: 3-MA 10 mM. The protocol: HeLa cells were pre-treated with 3-MA (10 mM) for 1 h, and then with 1 for 24 h as indicated. Cell viability was measured using MTT assay *, P<0.001. Effect of 3-MA on 1-induced cytotoxicity. Cells were seeded on 96-well microtitre plates (8×10^3 cells per well). After overnight incubation, the cells were pre-incubated with 3-methyladenine (3-MA, 10 mM) for 1 hour and then in the presence of 1 (DMSO<1%) for 24 h. Cell viability was measured by MTT assay as described before.

The subject of series [8] is cisplatin-resistant variant (CNE2) of human nasopharyngeal carcinoma cells. In words: MTT cell viability assay, CNE2. The series is classed as cell-based. The conditions noted are these: for IC50: MTT, 37° C., 48 h, mean ± SD.
Text: as §1

Series [9] relates to multi-drug resistant cell line QGY-TR50. In words: MTT cell viability assay, QGY-TR50. The series is classed as cell-based, human. The conditions noted are these: MTT, 37° C., 48 h; mean ± SD.
Text: as §1

Series [10] relates to human hepatocellular cancinoma cells QGY-7703. Description: MTT cell viability assay, QGY-7703. The conditions noted are these: MTT, 37° C., 48 h; mean ± SD. The series is classed as cell-based.
Text: as §1

The test system of series [11] is human hepatocellular carcinoma cells (Hep3B). In words: MTT cell viability assay, Hep3B. The series is classed as cell-based. The conditions noted are these: 37° C., 48 h, mean ± SD.
Text: as §1

Series [12] can be described thus: Stability by UV-visible in presence of reduced glutathione. The series is classed as physicochemical. The conditions noted are these: 6 mM GSH in DMSO/Tris buffer solution (1:9). The protocol: Moreover, concomitant band broadening in spectrum of complex 1 was observed after 24 h. No significant spectral shift and formation of new absorption band were observed. […] Comparing with the spectra of complex 1, the decrease in Soret band intensity of complex 2b is less significant. The intensities are only found to decrease in 2% and 19% after 2 h and 24 h, respectively. Also, there is no significant spectral shift and formation of new absorption band were observed (FIG. 8).

A short description of series [13]: Stability by UV-visible in DMSO/Tris buffer. The conditions noted are these: DMSO/Tris buffer solution (1:9), 24 h, room temperature; complex 1 3 μM, complex 2b 7 μM. The series is classed as physicochemical. Here is the method: UV-visible experiments. The absorption spectra of 3 μM of complex 1 in DMSO/Tris buffer solution (1:9) were monitored for 24 h. […] The complex was monitored over 24 h at room temperature and about 23% decrease in the Soret band intensity was recorded without any significant spectral shift in both Soret and Q-bands (FIG. 5). The absorption spectra of 7 μM of complex 2b in DMSO/Tris buffer solution (1:9) were also monitored for 24 h.

The subject of another series is calf thymus DNA. In words: Absorption titration with calf thymus DNA. The series is classed as binding. The conditions noted are these: Tris buffer. The protocol:
The calf thymus DNA was purchased from Sigma-Aldrich Chemical Co. and was purified by phenol-chloroform extraction. The DNA was dissolved in buffer (5 mM Tris, 5 mM NaCl, pH 7.2). The concentration (per base pair) or calf thymus DNA was determined spectophotometrically on the basic of ε260, 13200 M^−1cm^−1bp.
Absorption Titration. Studying the interaction between drugs and DNA is imperative to pharmaceutical chemistry. Since complexation between a ligand molecule and a nucleic acid leads to optical changes, its binding can be studied using spectroscopic methods like fluorescence and electronic absorption spectroscopy (C. V. Kumar, E. H. Asuncion, J. Am. Chem. Soc. 1993, 115, 8547-8553). The binding interactions of lanthanide (III) porphyrin complexes with calf thymus DNA were investigated using UV-vis spectroscopy and depicted in FIGS. 9 and 10 (selected absorption curves were shown for clear plot). By monitoring wavelengths at 410 nm (complex 1) and 430 nm (complex 2b), successive additions of calf thymus DNA to the respective complexes in Tris buffer solution containing <5% DMSO were done until saturation. Moderate hyprochromicities of 27% and 23% in complexes 1 and 2b were found without significant bathochromic spectral shift. […] The values of binding constant K were calculated from a plot of D/Δεap versus D based on the following equation:
Where D is the concentration of DNA, Δεap=|ΔεA−ΔεB| wherein εA=Aobs/[complex], and Δε=|ΔεB−ΔεF|; εB and εF correspond to the extinction coefficients of DNA-bound lanthanide(III) porphyrin complex adduct and its free complex, respectively. By monitoring absorbance at 410 nm (complex 1) and 430 nm (complex 2b), plots of D/Δεap against D are inserted in FIGS. 9 and 10. Linear curves in two graphs were plotted with slopes of 4.63×10^−5 (complex 1) and 3.60×10^−5 (complex 2b) (both R=0.99).

For series [14], the system named is HeLa cells. Description: Confocal microscopy with AO/EB staining. The conditions noted are these: complex 1 0.2 μM 20 h, complex 2b 10 μM 16 h. The series is classed as cell-based, human. The text has this:
Confocal Microscopic Experiment. By examining cell morphology under scanning confocal microscopy, the type of cell death can be distinguished. Early phase of apoptosis is characterized by the formation of apoptotic bodies when the integrity of the cell membrane is maintained without cell lysis. On the other hand, necrosis is characterized by cell lyses with the leaking out of internal cellular components such as DNA. With ethidium bromide (DNA stain) and acridine orange (cell membrane stain) as staining agents, normal, apoptotic and necrotic cells can be distinguished under laser confocal microscopy (Chan et. al., Inorg. Chem. 2002, 41, 3161-3171).

[15] abbreviates: IC50 of cisplatin divided by IC50 of complex.

As a reminder, the IC50 is the point on the concentration scale where inhibition reaches its midpoint. High values mean weaker potency, low ones greater potency. With `C1=Cc2nc1c(-c1ccccc1)c1ccc([n-]1)c(-c1ccccc1)c1nc(c(-c3ccccc3)c3ccc([n-]3)c2-c2ccccc2)C=C1.CC(=O)C=C(C)[O-].[Yb+3]` [Complex 2a], the “IC50 ratio cisplatin/complex, CCD-19Lu” value in [1] was 3.6. In addition, the IC50 in series [1] is 25.1 ± 2.6 µM; in [2] it was 15.2 ± 6.1 µM; in series [3], 16.2 ± 1.6 µM; in series [4], 17.1 ± 1.3 µM; in series [5], over 100 µM; in series [6] it was 6.9 ± 0.1 µM. In addition, in series [2], the “IC50 ratio cisplatin/complex, HCT-8” value was 1.7. In addition, the “IC50 ratio cisplatin/complex, SUNE1” value in series [3] was 0.7. Further, in series [4] (setting [15]), the “IC50 ratio cisplatin/complex, HepG2” value is 0.3. Besides, the “IC50 ratio cisplatin/complex, HeLa” value in series [6] worked out at 2.1.
With `Cn1cnc(N)c2ncnc1-2` [Complex 3-MA, 3-methyladenine, reference compound], the “cell viability after pre-treatment with 3-MA alone” value in the series with HeLa cells [7] is “did not affect cell viability”.
Take `N.N.[Cl][Pt][Cl]` [Cisplatin, cis-diamminedichloroplatinum[II], reference compound]: the IC50 was found to be 57.6 ± 4.6 µM in series [8]; 90.6 ± 42.3 µM in [1]; 26.1 ± 2.1 µM in series [2]; 11.8 ± 1.2 µM in series [3]; 32.6 ± 1.94 µM in series [9]; 45.8 ± 4.13 µM in series [10]. Moreover, the IC50 was found to be 4.76 ± 0.7 µM in series [4], 39.8 ± 2.38 µM in series [11], 35.4 ± 5 µM in series [5] and 14.2 ± 8.2 µM in [6].
In the case of [Yb2(TPP)2]μ-C2O4 [Complex 2b], the “decrease in Soret band intensity, reduced glutathione, 2 h” value in series [12] (2 h) was 2%. In [12] (24 h), the “decrease in Soret band intensity, reduced glutathione, 24 h” value came to 19%. Further, the “IC50 ratio cisplatin/complex, CNE2” value in series [8] (setting [15]) came to 3.4. For the same molecule, the IC50 in series [8] was 16.8 ± 0.01 µM; in series [1] it was 16 ± 2.9 µM; in series [2], 5.6 ± 1.5 µM; in [3], 9.4 ± 0.3 µM; in [5], over 100 µM; in series [6], 2.1 ± 0.3 µM. Further, in series [1], the “IC50 ratio cisplatin/complex, CCD-19Lu” value worked out at 5.6. Also, in series [2], the “IC50 ratio cisplatin/complex, HCT-8” value is given as 4.6. In series [13], the “decrease in Soret band intensity” value is on record as 5%. Moreover, the “hyprochromicity on addition of calf thymus DNA” value with calf thymus DNA (<5% DMSO, until saturation, 410 nm (1), 430 nm (2b)) came to 23%. In addition, the “binding constant K with calf thymus DNA” value with calf thymus DNA (UV-vis absorption titration, 20° C.) is given as “(5.49±0.8)×10^5 mol^−1dm^3”. For the same molecule, in [3], the “IC50 ratio cisplatin/complex, SUNE1” value was 1.2. In addition, in the series on HeLa cells [14], the “cell morphology (type of cell death) under confocal microscopy” value is “both living and apoptotic cells were observed”. Further, the “IC50 ratio cisplatin/complex, HeLa” value in series [6] was determined as 7.0.
